The text below walks through data of patent US10328061B2, “Treatment of Zika virus infections using alpha-glucosidase inhibitors” (FLORIDA STATE UNIVERSITY RESEARCH FOUNDATION, INC., priority 2016, dated 2019).

Data set [1] relates to Japanese encephalitis virus. As to conditions: compared with Dengue virus; cited from earlier work.
The test system of data set [2] is Japanese encephalitis virus. As to conditions: mice given a lethal dose of Japanese encephalitis virus; cited from earlier work.
The conditions of data set [3]: by endogenous esterases; cited from earlier work.
The next data set concerns FSS-13025 strain of ZIKV. Put plainly: Anti-ZIKV activity in SNB-19 cells, ZIKV-NS1 Western blot. The format is cell-based, Zika virus. As to conditions: 100 μm, 500 μm and 1 mM, one hour prior to inoculation (MOI=1), harvested 24 hours post-infection. The procedure:
FIG. 1. Castanospermine as anti-ZIKV compound. Castanospermine was screened for antiviral activity against ZIKV infection. Glioblastoma SNB-19 cells were treated with castanospermine at the indicated concentrations one hour prior to inoculation with the FSS-13025 strain of ZIKV (at MOI=1). Cells were harvested 24 hours post-infection and analyzed by Western blot for ZIKV-NS1 or GAPDH.
Cells of the glioblastoma SNB-19 cell line were maintained at 37° C. in 5% CO2 in […], 1× penicillin/streptomycin, and 10% fetal bovine serum (Invitrogen). SNB-19 cells were treated with castanospermine at increasing concentrations (100 μm, 500 μm, and 1 mM) one hour prior to inoculation with the FSS-13025 strain of ZIKV. Cells were harvested 24 hours post-infection and analyzed by Western blot for ZIKV-NS1 or GAPDH.
(In western blotting, separated proteins are transferred to a membrane and probed.)

Data set [4] concerns Zika virus (FSS13025). The experiment in a line: Zika viral load in serum of Ifnar1-/- mice (ZIKV NS1 ELISA). The format is in vivo, Ifnar1-/- mice (C57BL/6 background). As to conditions: 100 mg/kg BW intraperitoneal, day 0 to day 3. From the text:
FIGS. 2A-2B. Zika viral load in serum in Ifnar1−/− mice. Serum was separated from the blood by centrifugation. Viral load (NS1) was estimated using the ZIKV NS1 ELISA Kit (BioFront Technologies, Fl, USA) as per the manual. Statistical analysis was done by unpaired t-test using GraphPad Prism software. *p<0.05 is considered as significant (FIG. 2B). With castanospermine treatment, there was 46% reduction in Zika virus load as estimated by NS1 protein in the serum (FIG. 2A).
(§1) Ifnar1−/− mice (C57BL/6 background) were obtained (Muller U. et al. “Functional role of type I and type II interferons in antiviral defense”. Science. 1994; 264(5167):1918-21. Epub 1994/06/24). Out of 18 total Ifnar1−/− mice, two mice were dosed with castanospermine and media, 8 mice (male+female) were dosed with saline and ZIKV, and 8 mice were dosed with castanospermine and ZIKV on day-0. The drug was continued for three more days and animals were sacrificed on day-3. Body weight and water consumption were monitored daily.

Data set [5] relates to Zika virus (FSS13025). Put plainly: Zika viral load in liver of Ifnar1-/- mice (ZIKV NS1 gene real time PCR). As to conditions: 100 mg/kg BW intraperitoneal, day 0 to day 3, ZIKV NS1 gene by real time PCR. The format is in vivo, Ifnar1-/- mice (C57BL/6 background). The procedure: FIGS. 3A-3B. Zika viral load in liver of Ifnar1−/− mice. After euthanizing the mice, liver tissue samples were stored in RNAase later buffer, and after homogenization in lysis buffer the total RNA was extracted using Rneasy column (Qiagen). cDNA was prepared using RT reaction. The expression level of the ZIKV NS1 gene was quantified by real time PCR using specific primers. Statistical analysis was done by unpaired t-test using GraphPad Prism software. *p<0.05 is considered as significant (FIG. 3B). There was a 68% decrease in the viral load in the liver with castanospermine treatment (FIG. 3A).
as §1
(Quantitative PCR measures a nucleic acid by following its amplification.)

The subject of another data set is West Nile Virus. As to conditions: cited from earlier work.

In the case of `CCCCCCCCCN1C[C@H](O)[C@@H](O)[C@H](O)[C@H]1CO` [NN-DNJ, N-nonyl-deoxynojirimycin], the “suppression of cell infection by Japanese encephalitis virus” value in data set [1] is recorded as “suppressed cell infection but to a lesser extent than with Dengue virus”. In addition, the mortality rate result in data set [2] is listed as “decreased mortality rate”.

In the case of `CCCC(=O)O[C@H]1CN2CC[C@H](O)[C@@H]2[C@@H](O)[C@@H]1O` [celgosivir, 6-O-butanoyl castanospermine], in data set [3], the conversion to castanospermine result was “rapidly converted”.

As to `O[C@H]1[C@H](O)[C@@H](O)CN2CC[C@H](O)[C@H]12` [castanospermine, (1S,6S,7R,8aR)-Tetrahydroxyoctahydroindolizine], the “inhibition of ZIKV infection (ZIKV protein NS1 expression)” value in the data set on FSS-13025 strain of ZIKV was “significantly inhibit ZIKV infection”. For the same compound, the “reduction in Zika virus load as estimated by NS1 protein in the serum” value in the data set on Zika virus (FSS13025) [4] is given as 46%. For the same compound, the “decrease in the viral load in the liver” value in the data set with Zika virus (FSS13025) [5] came to 68%. Besides, the “sensitivity of West Nile Virus” value with West Nile Virus is given as “insensitive”.
